The values below come from patent US20110117166A1, “IMPLANTABLE BONE GRAFT MATERIALS” (AFFINERGY, INC., priority 2009, published 2011).

Ends that are not written are not given here.

In test [1] the test system is C2C12 cells. Briefly: Alkaline phosphatase secretion by C2C12 cells in response to BMP-2 with BMP binding peptide in solution. It counts as cell-based. The following applies: peptide 0-3500 nM, 3 days, FIG. 16. As for the experimental part:
In an experiment to test the biological activity of BMP-2 delivered by BMP binding peptide, alkaline phosphatase secreted by C2C12 cells in response to BMP-2 was measured in the presence and absence of BMP binding peptide in solution. C2C12 cells were incubated with BMP-2 (35 nM) and BMP binding peptide at a concentration ranging from 0-3500 nM. The C2C12 cells were incubated with the BMP-2 and BMP binding peptide for 3 days and the alkaline phosphatase assay was performed as described herein above.

Test [2] deals with T1, BMP-7 (Homo sapiens, UniProt P18075).
T1 sequence (P18075 293-431): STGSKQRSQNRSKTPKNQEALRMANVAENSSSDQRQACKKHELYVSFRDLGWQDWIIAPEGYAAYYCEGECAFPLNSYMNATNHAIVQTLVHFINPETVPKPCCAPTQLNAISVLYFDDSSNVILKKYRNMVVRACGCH
Briefly: ELISA of BMP-7 bound to immobilized BMP binding peptides. To be noted: FIG. 14B. In general terms: An ELISA detects its analyte on a solid surface through an enzyme-linked reagent.

For test [3], the system named is rat calvarial defect. Briefly: Rat calvarial defect model of bone healing (μCT and histology). In kind it is in vivo. To be noted: conclusion from saline-hydrated groups. As for the experimental part:
The ability of each of the bone void filler collagen/TCP composites (unmodified and BMP binding peptide modified at 5-15 μmol peptide/g collagen described in Example 5) to speed bone healing was assessed in a rat calvarial defect model. A defect was introduced into male Sprague Dawley rats (n=8) as described previously (Poehling, et. al, J Periodontol, 2006, 77:1582-90). A full thickness circular defect, 6.8 mm in diameter, was made in the parietal bone, centered across the midline. The disc of bone was removed, and the void was filled with bone graft substitute material hydrated with or without BMA harvested from the tibia (saline was used for hydration without BMA). […] The calvaria were removed and analyzed by micro-computed tomography (μCT) to provide measurements of bone density (SCANCO MEDICAL; Wayne, Pa.). […] For each sample, 6 sections evenly distributed across the defect were scored by two independent observers, blind to the treatment groups. The slides were scored for osteogenic cellular activity, new bone area, and new bone maturity according to the following procedure. For osteogenic cellular activity, fibroblasts/loose connective tissue, immature cartilage progenitors, immature bone progenitors, giant cells, osteoclasts, osteoblasts, and osteocytes were counted and scored according to the following scale: 1=Rare; 2=Few; 3=Moderate; and 4=Dense. […]

Test [4] concerns the target T2, BMP-2 (Homo sapiens, UniProt P12643).
T2 sequence (P12643 283-396): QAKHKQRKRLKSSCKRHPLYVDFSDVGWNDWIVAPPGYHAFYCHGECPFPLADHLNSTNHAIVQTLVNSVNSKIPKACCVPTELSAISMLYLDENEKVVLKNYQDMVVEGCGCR
The test can be described thus: ELISA of BMP-2 bound to biotinylated peptides immobilized on streptavidin plates. In kind it is binding. To be noted: FIG. 14A; BMP-2 200 nM, 20 nM and 2 nM, 45 minutes. As for the experimental part: BMP binding peptides SEQ ID NOs:1-4 & 8-10 were identified as described in US Patent Application Publication No. US20060051395A1. Briefly, the peptides were identified by phage display using immobilized BMP-2 as a substrate for the phage library selections. Synthetic peptides SEQ ID NOs: 1-2 were determined to bind to BMP-2 with a relative EC50 value of 0.8 nM and 0.9 nM, respectively (data not shown). Separately, the relative binding affinity of peptides SEQ ID NOs: 1-2 for BMP-2 is shown in FIG. 14A (SEQ ID NO: 1 is denoted as P9 and SEQ ID NO: 2 is denoted as P10). Briefly, the results shown in FIG. 14A were generated by immobilizing biotinylated BMP binding peptides SEQ ID NOs:1 & 2 on streptavidin coated plates. Serial dilutions of 200 nM, 20 nM and 2 nM of BMP-2 were incubated with the immobilized BMP binding peptides for 45 minutes, washed, and bound BMP quantified using ELISA.

Regarding “GGALGFPLKGEVVEGWA-NH2 (C-terminus assumed) [SEQ ID NO: 2]”, the “effect on BMP-2 biological activity (alkaline phosphatase secretion)” value in test [1] (BMP-2 35 nM) was “does not interfere with the biological activity of BMP-2”. For the same substance, the “BMP-2 activity of the peptide on its own (alkaline phosphatase secretion)” value in test [1] is given as “does not have BMP-2 activity on its own”. The “relative affinity for BMP-7” value in test [2] is reported as “high relative affinity”. Further, the “bioactivity of the peptide itself in bone formation” value in test [3] is “does not possess bioactivity itself”. Also, the “relative affinity for BMP-2” value in test [4] is “high relative affinity”.

With “GGGAWEAFSSLSGSRV-NH2 (C-terminus assumed) [SEQ ID NO: 1]”, in test [2], the “relative affinity for BMP-7” value is recorded as “high relative affinity”. In addition, in test [4], the “relative affinity for BMP-2” value is “high relative affinity”.
